Measured values published in US5547962A, “5-amino-8-methyl-7-pyrrolidinylquinoline-3-carboxylic acid derivative” (priority 1993, dated 1996).
Values after ≈ are worked out from the molar mass of the structure shown. Counter-ions that a name gives are not always drawn.

Columns and labels:
S. aureus FDA 209P JC-1 = assay: Antibacterial activity, MIC by agar dilution; format: cell-based; conditions: Staphylococcus aureus, FDA209P; laboratory standard strain, gram +
Excerpt: (§1) The strains employed were as follows:
(§2) Staphylococcus aureus (S. aureus)

S. aureus HPC292 = assay: Antibacterial activity, MIC by agar dilution; format: cell-based; conditions: Staphylococcus aureus, clinically isolated strain, gram +
Excerpt: as §1, §2

S. aureus HPC308 = assay: Antibacterial activity, MIC by agar dilution; format: cell-based; conditions: Staphylococcus aureus, clinically isolated strain, gram +
Excerpt: as §1, §2

S. aureus HPC527 = assay: Antibacterial activity, MIC by agar dilution; format: cell-based; conditions: Staphylococcus aureus, clinically isolated strain, gram +
Excerpt: as §1, §2

E. coli NIHJ JC-2 = assay: Antibacterial activity, MIC by agar dilution; format: cell-based; conditions: Escherichia coli, NIHJJC2; laboratory standard strain, gram -
Excerpt: as §1
Escherichia coli (E. coli)

K. pneumoniae HNR828 = assay: Antibacterial activity, MIC by agar dilution; format: cell-based; conditions: Klebsiella pneumoniae, clinically isolated strain, gram -
Excerpt: as §1
(§3) Klebsiella pneumoniae (K. pneumoniae)

K. pneumoniae HNR858 = assay: Antibacterial activity, MIC by agar dilution; format: cell-based; conditions: Klebsiella pneumoniae, clinically isolated strain, gram -
Excerpt: as §1, §3

K. pneumoniae HNR869 = assay: Antibacterial activity, MIC by agar dilution; format: cell-based; conditions: Klebsiella pneumoniae, clinically isolated strain, gram -
Excerpt: as §1, §3

K. pneumoniae PCI-602 = assay: Antibacterial activity, MIC by agar dilution; format: cell-based; conditions: Klebsiella pneumoniae, PCI602; laboratory standard strain, gram -
Excerpt: as §1, §3

S. marcescens HNR1544 = assay: Antibacterial activity, MIC by agar dilution; format: cell-based; conditions: Serratia marcescens, clinically isolated strain, gram -
Excerpt: as §1
(§4) Serratia marcescens (S. marcescens)

S. marcescens HNR1767 = assay: Antibacterial activity, MIC by agar dilution; format: cell-based; conditions: Serratia marcescens, clinically isolated strain, gram -
Excerpt: as §1, §4

S. marcescens HNR1792 = assay: Antibacterial activity, MIC by agar dilution; format: cell-based; conditions: Serratia marcescens, clinically isolated strain, gram -
Excerpt: as §1, §4

S. marcescens IAM 1184 = assay: Antibacterial activity, MIC by agar dilution; format: cell-based; conditions: Serratia marcescens, IAM1184; laboratory standard strain, gram -
Excerpt: as §1, §4

E. cloacae 963 = assay: Antibacterial activity, MIC by agar dilution; format: cell-based; conditions: Enterobacter cloacae, laboratory standard strain, gram -
Excerpt: as §1
(§5) Enterobacter cloacae (E. cloacae)

E. cloacae HNR1939 = assay: Antibacterial activity, MIC by agar dilution; format: cell-based; conditions: Enterobacter cloacae, clinically isolated strain, gram -
Excerpt: as §1, §5

E. cloacae HNR1941 = assay: Antibacterial activity, MIC by agar dilution; format: cell-based; conditions: Enterobacter cloacae, clinically isolated strain, gram -
Excerpt: as §1, §5

E. cloacae HNR1946 = assay: Antibacterial activity, MIC by agar dilution; format: cell-based; conditions: Enterobacter cloacae, clinically isolated strain, gram -
Excerpt: as §1, §5

E. faecalis HPC948 = assay: Antibacterial activity, MIC by agar dilution; format: cell-based; conditions: Enterococcus faecalis, clinically isolated strain, gram +
Excerpt: as §1
(§6) Enterococcus faecalis (E. faecalis)

E. faecalis HPC975 = assay: Antibacterial activity, MIC by agar dilution; format: cell-based; conditions: Enterococcus faecalis, clinically isolated strain, gram +
Excerpt: as §1, §6

E. faecalis HPC984 = assay: Antibacterial activity, MIC by agar dilution; format: cell-based; conditions: Enterococcus faecalis, clinically isolated strain, gram +
Excerpt: as §1, §6

A. calcoaceticus HNR904 = assay: Antibacterial activity, MIC by agar dilution; format: cell-based; conditions: Acinetobacter calcoaceticus, clinically isolated strain, gram -
Excerpt: as §1
(§7) Acinetobacter calcoaceticus (A. calcoaceticus)

A. calcoaceticus HNR916 = assay: Antibacterial activity, MIC by agar dilution; format: cell-based; conditions: Acinetobacter calcoaceticus, clinically isolated strain, gram -
Excerpt: as §1, §7

A. calcoaceticus HNR939 = assay: Antibacterial activity, MIC by agar dilution; format: cell-based; conditions: Acinetobacter calcoaceticus, clinically isolated strain, gram -
Excerpt: as §1, §7

CHL cells = assay: Chromosomal aberration test with a Chinese hamster lung cell line (CHL); format: cell-based; conditions: for Chromosomal aberration: CHL cells
Method: The chromosomal aberration test was conducted with a Chinese hamster lung cell line (CHL). 2-(2-Furyl)-3-(5-nitro-2-furyl)acrylamide was used as a positive control. Cells treated with the test compounds were cultured for 6 h at 37° C. in 5% CO2 -humidified air. Following the 6 h treatment the cells were washed. Fresh medium was added to the washed cells and they were cultured for a further 18 h. Colcemide was added to the cultures 2 h before the fixation of chromosome preparation, in order to collect metaphase cells.

Male Hartley guinea pigs = format: in vivo; conditions: 10 mg/kg i.v.; for Phototoxicity: number of animals with erythemas/number of animals tested: UVA 90 minutes, 24 h after irradiation
Method: Male Hartley guinea pigs were intravenously administered test compounds at a dose of 10 mg/kg, and immediately exposed to UVA on their backs for 90 minutes.

Male Wistar rats = assay: Convulsions, intracerebroventricular (i.c.v.) administration with fenbufen; format: in vivo, rat; conditions: 20 μg i.c.v.
Method: Male Wistar rats weighing 180-220 g were anesthetized with sodium pentobarbital (45 mg/kg, i.p.) and fixed in a stereotaxic apparatus. For the intracerebroventricular injection, a 0.6 mm diameter stainless steel guide cannula was implanted in each rat, being positioned 1.5 mm above the left lateral cerebroventricle (A: 6.2, R: 1.0, H: +1.0), according to the atlas of De Groot (1959). The guide cannula was fixed with dental cement on the skull and it was closed with a 0.3 mm diameter stainless steel stylet. To prevent infection, 10,000 units of potassium penicillin G were injected intramuscularly. The rats were allowed a few days to recover from the surgery.
For the measurement of convulsions, 30 min after intraperitoneal injection of 50 mg/kg of fenbufen, 20 μg of the test compounds was given through a 0.3 mm diameter of stainless steel cannula with a polyethylene catheter, which was 1.5 mm longer than the guide cannula in order to be inserted into the […] cerebroventricle (H: +1.0). […] The position of the intracerebroventricular cannula was confirmed by the injection of 10 μl of 1% evans blue followed by sectioning of the brain of each rat which had been used in the experiment.

male ICR mice = assay: Convulsions, intraperitoneal (i.p.) administration with fenbufen; conditions: for Convulsions i.p.: number of animals with convulsions/number of animals tested: 100 mg/kg i.p., fenbufen 100 mg/kg orally
Method: Thirty minutes later, they were injected intraperitoneally with the test compounds at a dose of 100 mg/kg. Thereafter, the onset of convulsions was recorded.

Row | SMILES | MIC (S. aureus FDA 209P JC-1) [µg/mL] | MIC (S. aureus HPC292) [µg/mL] | MIC (S. aureus HPC308) [µg/mL] | MIC (S. aureus HPC527) [µg/mL] | MIC (E. coli NIHJ JC-2) [µg/mL] | MIC (K. pneumoniae HNR828) [µg/mL] | MIC (K. pneumoniae HNR858) [µg/mL] | MIC (K. pneumoniae HNR869) [µg/mL] | MIC (K. pneumoniae PCI-602) [µg/mL] | MIC (S. marcescens HNR1544) [µg/mL] | MIC (S. marcescens HNR1767) [µg/mL] | MIC (S. marcescens HNR1792) [µg/mL] | MIC (S. marcescens IAM 1184) [µg/mL] | MIC (E. cloacae 963) [µg/mL] | MIC (E. cloacae HNR1939) [µg/mL] | MIC (E. cloacae HNR1941) [µg/mL] | MIC (E. cloacae HNR1946) [µg/mL] | MIC (E. faecalis HPC948) [µg/mL] | MIC (E. faecalis HPC975) [µg/mL] | Phototoxicity: number of animals with erythemas/number of animals tested (Male Hartley guinea pigs) | also measured
1 | Cc1c(N2CCC(C)(N)C2)c(F)c(N)c2c(=O)c(C(=O)O)cn(C3CC3)c12 (stereo not drawn) [Example 18, 5-Amino-7-(3-amino-3-methyl-1-pyrrolidinyl)-1-cyclopropyl-6-fluoro-1,4-dihydro-8-methyl-4-oxoquinoline-3-carboxylic acid] | 0.025 | 6.25 | 0.78 | 0.05 | 0.025 (≈ 0.0668 µM) | 6.25 (≈ 16.7 µM) | 0.39 (≈ 1.04 µM) | 3.13 (≈ 8.36 µM) | 0.006 (≈ 0.016 µM) | 0.1 (≈ 0.267 µM) | 25 (≈ 66.8 µM) | 3.13 (≈ 8.36 µM) | 0.2 (≈ 0.534 µM) | 0.05 (≈ 0.134 µM) | 0.39 (≈ 1.04 µM) | 12.5 (≈ 33.4 µM) | 0.39 (≈ 1.04 µM) | 0.78 | 3.13 | – | MIC (E. faecalis HPC984): 0.2 µg/mL; MIC (A. calcoaceticus HNR904): 12.5 µg/mL (≈ 33.4 µM); MIC (A. calcoaceticus HNR916): 0.05 µg/mL (≈ 0.134 µM); MIC (A. calcoaceticus HNR939): 0.78 µg/mL (≈ 2.08 µM)
2 | N[C@H]1CCN(c2cc3c(cc2F)c(=O)c(C(=O)O)cn3C2CC2)C1 [Reference Compound D, 7-((S)-3-amino-1-pyrrolidinyl)-1-cyclopropyl-6-fluoro-1,4-dihydro-4-oxoquinoline-3-carboxylic acid] | – | – | – | – | – | – | – | – | – | – | – | – | – | – | – | – | – | – | – | – | Chromosomal aberration (CHL cells; Table 1, 100 μg/ml): - (<10%); Chromosomal aberration (CHL cells; Table 2, 100 μg/ml): - (<10%)
3 | Cc1c(N2C[C@@H](N)[C@@H](C)C2)c(F)c(N)c2c(=O)c(C(=O)O)cn(C3CC3)c12 (relative stereo) [Example 14, 5-Amino-7-(cis-3-amino-4-methyl-1-pyrrolidinyl)-1-cyclopropyl-6-fluoro-1,4-dihydro-8-methyl-4-oxoquinoline-3-carboxylic acid] | 0.012 | 1.56 | 0.39 | 0.012 | 0.012 (≈ 0.032 µM) | 3.13 (≈ 8.36 µM) | 0.2 (≈ 0.534 µM) | 1.56 (≈ 4.17 µM) | 0.006 (≈ 0.016 µM) | 0.05 (≈ 0.134 µM) | 6.25 (≈ 16.7 µM) | 3.13 (≈ 8.36 µM) | 0.2 (≈ 0.534 µM) | 0.05 (≈ 0.134 µM) | 0.2 (≈ 0.534 µM) | 6.25 (≈ 16.7 µM) | 0.2 (≈ 0.534 µM) | 0.39 | 1.56 | 0/5 | MIC (E. faecalis HPC984): 0.2 µg/mL; MIC (A. calcoaceticus HNR904): 3.13 µg/mL (≈ 8.36 µM); MIC (A. calcoaceticus HNR916): 0.025 µg/mL (≈ 0.0668 µM); MIC (A. calcoaceticus HNR939): 0.2 µg/mL (≈ 0.534 µM)
4 | Cc1c(N2CCNCC2)c(F)c(N)c2c(=O)c(C(=O)O)cn(C3CC3)c12 [Reference Compound I, 5-amino-1-cyclopropyl-6-fluoro-1,4-dihydro-8-methyl-4-oxo-7-piperazinylquinoline-3-carboxylic acid hydrochloride] | – | – | – | – | – | – | – | – | – | – | – | – | – | – | – | – | – | – | – | 0/5 | convulsions i.c.v., in words (Male Wistar rats; fenbufen): observed; Convulsions i.c.v.: number of animals with convulsions/number of animals tested (Male Wistar rats; fenbufen 50 mg/kg i.p.): 3/3; Convulsions i.p.: number of animals with convulsions/number of animals tested (male ICR mice): 0/6; symptom of sedation (male ICR mice; i.p. convulsion test): All of mice used for the test had a symptom of sedation
5 | Cl.Nc1c(F)c(N2C[C@@H](N)C3(CC3)C2)cc2c1c(=O)c(C(=O)O)cn2C1CC1 [Reference Compound B, 5-amino-7-((S)-7-amino-5-azaspiro[2.4]hept-5-yl)-1-cyclopropyl-6-fluoro-1,4-dihydro-4-oxoquinoline-3-carboxylic acid hydrochloride] | – | – | – | – | – | – | – | – | – | – | – | – | – | – | – | – | – | – | – | 3/5 | Chromosomal aberration (CHL cells; Table 1, 3 μg/ml): + (10-20%); Chromosomal aberration (CHL cells; Table 2, 3 μg/ml): + (10-20%); Chromosomal aberration (CHL cells; Table 3, 3 μg/ml): + (10-20%); Chromosomal aberration (CHL cells; Table 7, 3 μg/ml): + (10-20%); toxicity (chromosomal aberration), in words (CHL cells; comparison to Tables 7 and 8): observed; death of CHL cells (CHL cells; treatment with 100 μg/ml): all cells died; phototoxicity, in words (Male Hartley guinea pigs; UVA): observed; Convulsions i.p.: number of animals with convulsions/number of animals tested (male ICR mice): 0/6
